According to patent US20250145594A1, “MODULATORS OF THE INTEGRATED STRESS PATHWAY” (Calico Life Sciences LLC, priority 2020, published 2025):

Tested on: ATF4 luciferase reporter in HEK293T cells
Assay: ATF4-Luc assay (in vitro model of VWMD)
Type: cell-based, human
Settings: Homo sapiens, HEK-293T, 7 h, HEK293T cells carrying the ATF4 luciferase reporter, 1 μg/mL tunicamycin, One Glo luminescence
In short: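 Stable HEK293T line expressing firefly luciferase behind the human ATF4 5′-UTR, treated with 1 μg/mL tunicamycin plus compound for 7 hours. Luminescence read with One Glo; EC50 determined.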

`O=C(NC12CC(n3cc(N4CC(OC(F)(F)F)C4)cn3)(C1)C2)[C@H]1C[C@@H](O)c2cc(Cl)ccc2O1` [Compound 352, (2R,4R)-6-chloro-4-hydroxy-N-(3-{4-[3-(trifluoromethoxy)azetidin-1-yl]-1H-pyrazol-1-yl}bicyclo[1.1.1]pentan-1-yl)-3,4-dihydro-2H-1-benzopyran-2-carboxamide] was tested, and the EC50 was 0.01 to 0.05 µM.

`O=C(NC12CC(n3cnc(C(=O)N4CC[C@@H](OC(F)(F)F)C4)c3)(C1)C2)[C@H]1C[C@@H](O)c2cc(Cl)ccc2O1` [Compound 321, (2R,4R)-6-chloro-4-hydroxy-N-(3-{4-[(3R)-3-(trifluoromethoxy)pyrrolidine-1-carbonyl]-1H-imidazol-1-yl}bicyclo[1.1.1]pentan-1-yl)-3,4-dihydro-2H-1-benzopyran-2-carboxamide] gave an EC50 of 0.01 to 0.05 µM.

`O=C(COc1ccc(Cl)c(F)c1)NC12CC(c3ccc(OCCOC(F)(F)F)nc3)(C1)C2` [Compound 456, 2-(4-chloro-3-fluorophenoxy)-N-(3-{6-[2-(trifluoromethoxy)ethoxy]pyridin-3-yl}bicyclo[1.1.1]pentan-1-yl)acetamide] was tested, and the EC50 was 0.05 to 0.25 µM.

With `O=C(NC12CC(n3cc(OCCCC(F)(F)F)cn3)(C1)C2)[C@H]1C[C@@H](O)c2cc(Cl)ccc2O1` [Compound 517, (2R,4R)-6-chloro-4-hydroxy-N-{3-[4-(4,4,4-trifluorobutoxy)-1H-pyrazol-1-yl]bicyclo[1.1.1]pentan-1-yl}-3,4-dihydro-2H-1-benzopyran-2-carboxamide] the EC50 was under 0.01 µM.

`O=C(COc1ccc(Cl)c(F)c1)NC12CC(n3cc(OC[C@H]4C[C@@H](OC(F)(F)F)C4)cn3)(C1)C2` [Compound 612, 2-(4-chloro-3-fluorophenoxy)-N-[3-(4-{[(1s,3s)-3-(trifluoromethoxy)cyclobutyl]methoxy}-1H-pyrazol-1-yl)bicyclo[1.1.1]pentan-1-yl]acetamide] showed an EC50 of under 0.01 µM.

`O=C(NC12CC(n3cnc(-c4ccc(Cl)c(F)c4F)c3)(C1)C2)[C@H]1C[C@@H](O)c2cc(Cl)ccc2O1` [Compound 394, (2R,4R)-6-chloro-N-{3-[4-(4-chloro-2,3-difluorophenyl)-1H-imidazol-1-yl]bicyclo[1.1.1]pentan-1-yl}-4-hydroxy-3,4-dihydro-2H-1-benzopyran-2-carboxamide] was tested, and the EC50 was under 0.01 µM.

With `O=C(NC12CC(n3cc(CCCOC(F)(F)F)cn3)(C1)C2)[C@H]1CC(O)c2cc(Cl)ccc2O1` (stereo in doubt) [Compound 463, (2R,4R)-6-chloro-4-hydroxy-N-(3-{4-[3-(trifluoromethoxy)propyl]-1H-pyrazol-1-yl}bicyclo[1.1.1]pentan-1-yl)-3,4-dihydro-2H-1-benzopyran-2-carboxamide] the EC50 was under 0.01 µM.

For `O=C(NC12CC(n3cc(-c4ccc(C(F)(F)F)cn4)cn3)(C1)C2)[C@H]1C[C@H](O)c2cc(Cl)c(F)cc2O1` [Compound 478, (2R,4S)-6-chloro-7-fluoro-4-hydroxy-N-(3-{4-[5-(trifluoromethyl)pyridin-2-yl]-1H-pyrazol-1-yl}bicyclo[1.1.1]pentan-1-yl)-3,4-dihydro-2H-1-benzopyran-2-carboxamide], the EC50 was under 0.01 µM.

`O=C(NC12CC(n3cc(-c4cnc(C5CC5)nc4)cn3)(C1)C2)[C@H]1C[C@@H](O)c2cc(Cl)ccc2O1` [Compound 365, (2R,4R)-6-chloro-N-{3-[4-(2-cyclopropylpyrimidin-5-yl)-1H-pyrazol-1-yl]bicyclo[1.1.1]pentan-1-yl}-4-hydroxy-3,4-dihydro-2H-1-benzopyran-2-carboxamide] gave an EC50 of under 0.01 µM.

For `O=C(N[C@H]1CC[C@H](n2cc(-c3ccc(OC(F)(F)F)cn3)cn2)CC1)[C@H]1C[C@@H](O)c2cc(Cl)ccc2O1` [Compound 481, (2R,4R)-6-chloro-4-hydroxy-N-[(1r,4R)-4-{4-[5-(trifluoromethoxy)pyridin-2-yl]-1H-pyrazol-1-yl}cyclohexyl]-3,4-dihydro-2H-1-benzopyran-2-carboxamide], the EC50 was under 0.01 µM.

`O=C(NC12CC(n3cc(-c4ccc(OC(F)(F)F)cn4)cn3)(C1)C2)[C@H]1C[C@@H](O)c2cc(Cl)c(Br)cc2O1` [Compound 380, (2R,4R)-7-bromo-6-chloro-4-hydroxy-N-(3-{4-[5-(trifluoromethoxy)pyridin-2-yl]-1H-pyrazol-1-yl}bicyclo[1.1.1]pentan-1-yl)-3,4-dihydro-2H-1-benzopyran-2-carboxamide] showed an EC50 of under 0.01 µM.

`C[C@@H](COC(F)(F)F)Oc1cnn(C23CC(NC(=O)[C@H]4C[C@@H](O)c5cc(Cl)ccc5O4)(C2)C3)c1` [Compound 439, (2R,4R)-6-chloro-4-hydroxy-N-[3-(4-{[(2S)-1-(trifluoromethoxy)propan-2-yl]oxy}-1H-pyrazol-1-yl)bicyclo[1.1.1]pentan-1-yl]-3,4-dihydro-2H-1-benzopyran-2-carboxamide] gave an EC50 of under 0.01 µM.

With `O=C(NC12CC(n3cc(-c4ccc(C(F)(F)F)cn4)cn3)(C1)C2)C1CNc2cc(C(F)(F)F)c(F)cc2O1` (stereo not drawn) [Compound 591, 7-fluoro-6-(trifluoromethyl)-N-(3-{4-[5-(trifluoromethyl)pyridin-2-yl]-1H-pyrazol-1-yl}bicyclo[1.1.1]pentan-1-yl)-3,4-dihydro-2H-1,4-benzoxazine-2-carboxamide] the EC50 was 0.01 to 0.05 µM.

For `O=C(NC12CC(n3cc(COCCOC(F)(F)F)nn3)(C1)C2)[C@H]1C[C@@H](O)c2cc(Cl)ccc2O1` [Compound 522, (2R,4R)-6-chloro-4-hydroxy-N-[3-(4-{[2-(trifluoromethoxy)ethoxy]methyl}-1H-1,2,3-triazol-1-yl)bicyclo[1.1.1]pentan-1-yl]-3,4-dihydro-2H-1-benzopyran-2-carboxamide], the EC50 was under 0.01 µM.

Compound `O=C(N[C@H]1CC[C@H](n2cc(N3CC[C@@H](OC(F)(F)F)C3)cn2)CC1)[C@H]1C[C@@H](O)c2cc(Cl)c(F)cc2O1` [Compound 582, (2R,4R)-6-chloro-7-fluoro-4-hydroxy-N-[(1R,4R)-4-{4-[(3R)-3-(trifluoromethoxy)pyrrolidin-1-yl]-1H-pyrazol-1-yl}cyclohexyl]-3,4-dihydro-2H-1-benzopyran-2-carboxamide] has an EC50 of 0.01 to 0.05 µM.

In the case of `O=C(NC12CC(n3cc(C(=O)N4CC[C@H](OC(F)(F)F)C4)cn3)(C1)C2)[C@@H]1C[C@@H](O)c2cc(Cl)ccc2O1` [Compound 324, (2S,4R)-6-chloro-4-hydroxy-N-(3-{4-[(3S)-3-(trifluoromethoxy)pyrrolidine-1-carbonyl]-1H-pyrazol-1-yl}bicyclo[1.1.1]pentan-1-yl)-3,4-dihydro-2H-1-benzopyran-2-carboxamide], the EC50 is reported as under 0.01 µM.

Compound `O=C(NC12CC(n3cc(-c4ccc(OC(F)F)cn4)cn3)(C1)C2)[C@H]1C[C@@H](O)c2cc(Cl)c(F)cc2O1` [Compound 576, (2R,4R)-6-chloro-N-(3-{4-[5-(difluoromethoxy)pyridin-2-yl]-1H-pyrazol-1-yl}bicyclo[1.1.1]pentan-1-yl)-7-fluoro-4-hydroxy-3,4-dihydro-2H-1-benzopyran-2-carboxamide] has an EC50 of under 0.01 µM.

`O=C(NC12CC(n3cc(OCCOC(F)(F)F)cn3)(C1)C2)[C@H]1C[C@@H](O)c2cc(C(F)(F)F)c(F)cc2O1` [Compound 483, (2R,4R)-7-fluoro-4-hydroxy-N-(3-{4-[2-(trifluoromethoxy)ethoxy]-1H-pyrazol-1-yl}bicyclo[1.1.1]pentan-1-yl)-6-(trifluoromethyl)-3,4-dihydro-2H-1-benzopyran-2-carboxamide] showed an EC50 of under 0.01 µM.
